These results are taken from paper PMC11421016, “Biotransformation and Epithelial Toxicity of Prenylated Phenolics from Licorice Roots (Glycyrrhiza spp.) in 3D Apical-Out Mucus-Producing Human Enteroids” (Journal of Agricultural and Food Chemistry, 2024).

In one data set the test system is Caco-2 cells. Briefly: Cytotoxicity by LDH leakage assay in Caco-2 cells. The format is cell-based, human. To be noted: proliferating and differentiated Caco-2 cells (differentiated: ref 17), cutoff 25%. On the procedure:
The human colon adenocarcinoma cell line (Caco-2) was obtained from the American Type Culture Collection (ATCC; Manassas, VA, USA). Caco-2 cells were cultured in DMEM, in a humidified atmosphere of 5% CO2 at 37 °C until 80–90% confluency was reached. Effects on the cytotoxicity and cell viability (Section 2.6) were assessed in proliferating and differentiated Caco-2 cells. The effects on differentiated Caco-2 cells were recently described in our publication.[17] Proliferating and differentiated Caco-2 cells were seeded into 96-well plates at a density of 15,000 cells per cm^2.
Cytotoxicity and effects on cell viability after exposure to glab, licoA, and glycy in apical-out and apical-in enteroids (6.25–500 μg mL^–1) and proliferating Caco-2 cells (3.13–100 μg mL^–1) were determined by LDH leakage (Section 2.6.1) and WST-1 assays (Section 2.6.2), respectively. For this, stock solutions of 50 mg mL^–1 of glab, licoA, and glycy in DMSO were used. […] After 3 days in ODM, the effects on cytotoxicity and cell viability of glab, licoA, and glycy in apical-out and apical-in enteroids (passages between 3 and 17) were assessed after 4 and 24 h of incubation. […]
Cytotoxic effects of glab, licoA, and glycy were assessed by measuring leakage of intracellular lactate dehydrogenase (LDH) in the supernatant and analyzed using an LDH cytotoxicity detection kit (Roche Applied Science, Almere, The Netherlands), according to the manufacturer’s instructions. The LDH activity in the supernatant was expressed as the percentage of the maximum releasable LDH in enteroids or Caco-2 cells (enteroids or Caco-2 cells treated with 1% (v/v) Triton X-100) and calculated with eq 1. […] 1 in which exp. value is the UV absorbance at 492 nm (Tecan Spark or Tecan Infinite 200 Pro, Tecan Group Ltd., Zürich, Switzerland), background control is the medium with corresponding concentration of glab, licoA, or glycy, and high control is the maximum releasable LDH in enteroids or Caco-2 cells. […]

Data set [1] can be described thus: Stability in the medium without enteroids. It is filed as physicochemical. To be noted: after 24 h of incubation. How it is done: Quantification of glab, licoA, glycy, and produced metabolites was based on UV absorbance at 280 nm (glab), 340–390 nm (licoA), and 320–370 nm (glycy). For this, a seven-point calibration (0.01–150 μg mL^–1) curve based on external standards of glab, licoA, and glycy (R^2 > 0.999) was used. UV peaks were integrated using the AVALON integration algorithm with the autocalc function (Xcalibur 4.1). Metabolites were quantified as glab, licoA, or glycy equivalents.

Data set [2] concerns human ileal apical-out enteroids. To be noted: 12.5 μg mL^–1 (34–39 μM), 4 h exposure. On the procedure:
Effects on barrier integrity of apical-out enteroids after glab, licoA, and glycy exposure were evaluated with a dextran diffusion assay, adapted from Co et al.[14] […] Enteroids were allowed to settle by gravity (5 min) into a pellet, the FITC-dextran 4 kDa was aspirated, and enteroids were washed with DMEM/F12 (3 min, 250g, RT). Enteroids were suspended in fresh DMEM/F12, and they were imaged with an EVOS FL Auto 2 cell imaging system. Images were analyzed using ImageJ software (version 1.52).

The test system is the same in data set [3]. Briefly: Cytotoxicity by LDH leakage assay in apical-out enteroids. It is filed as cell-based. How it is done: Cytotoxicity and effects on cell viability after exposure to glab, licoA, and glycy in apical-out and apical-in enteroids (6.25–500 μg mL^–1) and proliferating Caco-2 cells (3.13–100 μg mL^–1) were determined by LDH leakage (Section 2.6.1) and WST-1 assays (Section 2.6.2), respectively. For this, stock solutions of 50 mg mL^–1 of glab, licoA, and glycy in DMSO were used. […] An overview of the experimental conditions for the exposure experiments with glab, licoA, and glycy is shown in Table S2 (Supporting Information). In brief, apical-out and apical-in enteroids were grown for 7–10 days in OGM (∼200 enteroids per dome), after which the medium was changed to ODM (supplemented with 5 μM DAPT) to initiate enteroid differentiation. To generate apical-out enteroids, MG was removed from apical-in enteroids in OGM at day 7–10, as described in Section 2.3, and suspended in supplemented ODM. After 3 days in ODM, the effects on cytotoxicity and cell viability of glab, licoA, and glycy in apical-out and apical-in enteroids (passages between 3 and 17) were assessed after 4 and 24 h of incubation. For apical-out enteroids in a suspension, enteroids were pelleted by centrifugation (2 min, 200g, RT), after which the ODM was removed and 500 μL of the experimental agent was added. […] Caco-2 cells were grown for 48 h after seeding before experiments (passages 14–19) with proliferating cells and for 21 days after seeding (passages 14–33) with differentiated cells.[17] The medium (DMEM supplemented with FCS) was changed every 2 days. For exposure experiments, Caco-2 cells were incubated with glab, licoA, and glycy in DMEM without FCS, as FCS serves as an exogenous source of LDH.[22]
Cytotoxic effects of glab, licoA, and glycy were assessed by measuring leakage of intracellular lactate dehydrogenase (LDH) in the supernatant and analyzed using an LDH cytotoxicity detection kit (Roche Applied Science, Almere, The Netherlands), according to the manufacturer’s instructions. The LDH activity in the supernatant was expressed as the percentage of the maximum releasable LDH in enteroids or Caco-2 cells (enteroids or Caco-2 cells treated with 1% (v/v) Triton X-100) and calculated with eq 1. [drawing 1] 1 in which exp. value is the UV absorbance at 492 nm (Tecan Spark or Tecan Infinite 200 Pro, Tecan Group Ltd., Zürich, Switzerland), background control is the medium with corresponding concentration of glab, licoA, or glycy, and high control is the maximum releasable LDH in enteroids or Caco-2 cells. For enteroids, each well was used as its own positive control by taking the total releasable LDH of each well after incubation.
(In general: Release of lactate dehydrogenase indicates damage to the cell membrane.)

Take `C=CC(C)(C)c1cc(/C=C/C(=O)c2ccc(O)cc2)c(OC)cc1O` [licochalcone A]: in the data set with Caco-2 cells, the “highest nontoxic concentration (LDH)” value is “around 75 μM”. The “recovery in the medium (without enteroids)” value in data set [1] is given as 101 ± 3.2%. In addition, the “epithelial barrier (membrane) integrity” value in data set [2] was “did not seem to disrupt”. For the same molecule, the “cytotoxicity (LDH)” value in data set [3] (500 μg mL^–1, 4 h exposure, % of maximum releasable LDH) was −6 ± 2%. Also, the “effects on cytotoxicity up to the highest concentrations” value in data set [3] (4 h exposure, up to 500 μg mL^–1, p > 0.05) is listed as “No significant effects on cytotoxicity”.

Turning to `CC1(C)C=Cc2c(ccc3c2OC[C@@H](c2ccc(O)cc2O)C3)O1` [glabridin], in the data set with Caco-2 cells, the “highest nontoxic concentration (LDH)” value is reported as “around 75 μM”. Moreover, the “recovery in the medium (without enteroids)” value in data set [1] turned out to be 101 ± 2.2%. Also, the “epithelial barrier (membrane) integrity” value in data set [2] is on record as “did not seem to disrupt”. In addition, the “fold higher concentration for significant cytotoxicity in apical-out vs apical-in enteroids” value in data set [3] (human) is listed as 3-5 fold.

For `COc1c(CC=C(C)C)c(O)cc2oc(=O)c(-c3ccc(O)cc3O)cc12` [glycycoumarin], the “highest nontoxic concentration (LDH)” value with Caco-2 cells is recorded as “around 75 μM”. In addition, the “recovery in the medium (without enteroids)” value in data set [1] is recorded as 101 ± 3.0%. Further, the “epithelial barrier (membrane) integrity” value in data set [2] is recorded as “did not seem to disrupt”. The “fold higher concentration for significant cytotoxicity in apical-out vs apical-in enteroids” value in data set [3] (human) is listed as 3-5 fold. Besides, the “cytotoxicity (LDH)” value in data set [3] (human, 4 h, 500 μg mL^–1) was −2 ± 2%.
